For 63 compounds, XC50 results are on record in ChEMBL document CHEMBL1157539, “Thousands of chemical starting points for antimalarial lead identification” (Nature, 2010).

This experiment concerns Plasmodium falciparum. Description: GSK_TCMDC: Inhibition of Plasmodium falciparum 3D7 in whole erythrocytes, using parasite LDH activity as an index of growth. Type of experiment: functional, organism-based. The conditions noted are these: Plasmodium falciparum, 3D7.
`Cc1ccc2nc(C)cc(N/N=C/c3ccccc3[N+](=O)[O-])c2c1` returned an XC50 of 166 nM. Take `CCC(CO)NCC(O)Cn1c2ccc(Cl)cc2c2cc(Cl)ccc21` (stereo not drawn): the XC50 was found to be 768 nM. For `CN(C)CCNCc1nc(-c2ccc3c(Nc4ccc(Cl)cc4F)ccnc3c2)cs1`, the XC50 is 809 nM.

`COc1ccc(S(=O)(=O)Nc2ccc(C(=O)NCc3ccccc3C(F)(F)F)cc2)cc1N1CCN(CC2CC2)CC1` had an XC50 of 1150 nM.

For `CC1(C)NC(N)=NC(=N)N1OCOc1cc(Cl)c(Cl)cc1Cl`, the XC50 was determined as 3.2 nM.

The compound `CC1(C)NC(N)=NC(=N)N1OCCc1ccccc1` had an XC50 of 3.2 nM.

Compound `CN(C)CCCOc1ccc(-c2nc(-c3ccc4c(c3)CCC4=NO)c(-c3ccncc3)[nH]2)cc1` had an XC50 of 832 nM. To `O=C(O[C@@H]1CN[C@H](C#Cc2cc3c(Nc4ccc5c(cnn5Cc5ccccc5)c4)ncnc3s2)C1)N1CCCC1` belongs 424 nM. In turn, `C[C@@H](Nc1nc(NCc2ccccc2)c2sccc2n1)c1ccccc1` registered an XC50 of 919 nM.

`COc1cc(C(=O)N2CCN(C(C)C)CC2)ccc1CN(C)CCCN1CCN(c2cccc(Cl)c2Cl)CC1` returned an XC50 of 776 nM. `CCCCCCCc1cc(O)c2c3c(c(=O)oc2c1)CN(C)CC3`: the XC50 was determined as 144 nM. With `N[C@@H](Cc1ccc(O)cc1)C(=O)NC(c1ccccc1)c1c(O)ccc2ccccc12` (stereo partly drawn), the XC50 was 694 nM. The compound `COc1ccc(S(=O)(=O)NC2CCN(c3ccnc4cc(Cl)ccc34)C2)cc1` (stereo not drawn) registered an XC50 of 493 nM. `CC(C)c1cccc(C(C)C)c1NC(=O)NNC(=O)c1ccc(CCN2CCC(c3nc(COCC(F)(F)F)c(-c4ccc(F)cc4)o3)CC2)cc1` gave an XC50 of 1090 nM.

The compound `CCC1CCCCN1S(=O)(=O)c1ccc(NC(=O)c2cc(C)on2)cc1` (stereo not drawn) showed an XC50 of 1240 nM. `CC1=C(C(=O)Nc2cc3cn[nH]c3cc2F)C(c2cccc(NS(C)(=O)=O)c2)CC(=O)N1` (stereo not drawn) registered an XC50 of 434 nM. As to `CC[C@H]1CN2CC[C@H]1C[C@H]2[C@H](O)c1cc(-c2cccc(Cl)c2)nc2ccc(OC)cc12`, the XC50 was 168 nM.

Compound `CCOC(=O)C1=C(C)NC(Cn2ccnc2)=C(C(=O)OCC)C1c1ccc(C(C)(C)C)cc1` (stereo not drawn) displayed an XC50 of 807 nM.

On to `OC(CNc1ccnc(Nc2cccc(OCCCN3CCOCC3)c2)n1)c1ccccc1` (stereo not drawn), for which the XC50 worked out at 924 nM. To `CCCCNCc1ccc(-c2nc(CN(CCCn3ccnc3)C(=O)C3COc4ccccc4O3)cs2)cc1` (stereo not drawn) belongs 892 nM; to `COc1cc(C(=O)NC2CCN(Cc3ccccc3)CC2)ccc1-c1nc2c(Cl)cc(C(F)(F)F)cc2[nH]1`, 670 nM; to `O=c1nc(NCCCCCN2CCC(c3c[nH]c4ccccc34)CC2)[nH]cc1Cc1ccc(Cl)c(Cl)c1`, 969 nM.

Consider `COc1ccc(-c2cccc(NC(=O)c3cccc(C#N)c3)c2)cc1CN1CCNCC1`, for which the XC50 was determined as 728 nM. Regarding `CC(=O)N1N=C(c2ccccc2)Sc2c1nc(-c1ccc(Cl)cc1)n2C(C)=O`, the XC50 was determined as 986 nM. As to `Cc1cc(O)c2c(c1)OC(C)(C)C=C2C1=CCN(Cc2ccccc2)CC1`, the XC50 is 791 nM. To `COc1ccc(N(C)Cc2cnc3nc(N)nc(N)c3n2)cc1` belongs 284 nM; to `O=C(C1CCN(c2nnnn2-c2ccccc2)CC1)N1CCc2ccccc2C1`, 712 nM.

The compound `O=C(Nc1cccc(CN2CCN(C(=O)c3cccc(Cl)c3)CC2)c1)c1ccco1` returned an XC50 of 438 nM. The same measure for `O=C(Cc1n[nH]c(=O)c2ccccc12)Nc1cccc(C(=O)Nc2cccc(C(F)(F)F)c2)c1`: 169 nM. On to `COc1cc2c(cc1C(F)(F)F)N(C(=O)Nc1cc(-c3ccncc3)cc(-c3cccnc3)c1)CC2`, for which the XC50 came to 619 nM. In turn, `COc1ccccc1-c1ccc(CNC(=O)C(CN2CCN(C)CC2)c2ccccc2)cc1` (stereo not drawn) showed an XC50 of 1260 nM. `CS(=O)(=O)NCCCNCc1cccc(-c2ccc(-c3nc4ccccc4[nH]3)s2)c1` had an XC50 of 1080 nM. On to `FC(F)(F)c1cccc(CNCC2CCN(Cc3ccc4c(c3)OCO4)CC2)c1`, for which the XC50 is 725 nM. In the case of `O=C(NCCN1CCOCC1)c1csc(C2CCCN(C(=O)c3ccc(O)c(-c4cc(Cl)cc(Cl)c4)c3)C2)n1` (stereo not drawn), the XC50 turned out to be 1030 nM.

In turn, `Cc1ccc(/C=C/C(=O)NCCCCCN2CCN(C(=O)Nc3ccc(Cl)c(C(F)(F)F)c3)CC2)cc1` returned an XC50 of 1110 nM. Compound `CNC(=N)c1ccc(NC(=O)Nc2ccc(C(=N)NC)cc2)cc1` yielded an XC50 of 577 nM. To `O=C(NCc1ccc(Cl)c(Cl)c1)c1ccc(-c2nc3ccc(F)cc3[nH]2)cc1` belongs 1030 nM. `COc1ccc2nccc([C@@H](O)CN3CCC(NCc4cc5cc([N+](=O)[O-])ccc5[nH]4)CC3)c2c1` yielded an XC50 of 117 nM. `COc1ccc(NC(=O)[C@H](Cc2ccccc2)Nc2nc(NCCN3CCCC3)ncc2C)cc1` gave an XC50 of 988 nM. With `O=C(NC1CCCC1)c1cc2c(=O)n3ccccc3nc2[nH]/c1=N/CCc1ccccc1`, the XC50 was 649 nM.

`NCc1ccc(-c2ccccc2CNC2CCN(Cc3ccccc3)CC2)cc1`: the XC50 was determined as 765 nM. `CC(C)CN1C(=O)C(c2ccc(F)c(F)c2)=C(O)C1c1ccccc1` (stereo not drawn) gave an XC50 of 185 nM. Take `Cc1cccc2nc(-c3cccc(-c4ccc(NC(=O)c5cnccc5C(F)(F)F)cc4)c3)[nH]c12`: the XC50 turned out to be 695 nM. The same measure for `CC(=O)OCCN1C(=O)c2ccc3c4c(ccc(c24)C1=O)C(=O)N(CCOC(C)=O)C3=O`: 238 nM; for `CCOC(=O)c1cnc2cc(N3CCCC3)c(Cl)cc2c1OCC`: 108 nM. Compound `O=C(Nc1cccc(C(F)(F)F)c1)N1CCOC(CCN2CCC3(CCc4ccccc43)CC2)(c2ccc(Cl)c(Cl)c2)C1` (stereo not drawn) showed an XC50 of 736 nM. On to `COc1cc(OC)c2c(C)cc(NCCCN3CCOCC3)nc2c1`, for which the XC50 was 1070 nM. To `Cc1[nH]c2c(NCc3ccc(F)cc3)nccc2c1C` belongs 1360 nM.

As to `Cc1cccc(N2C(N)=NC(N)=NC2(C)C)c1C`, the XC50 stood at 759 nM. To `CCCc1c(Cl)cc(CNCCCNc2nc3ccncc3[nH]2)cc1Cl` belongs 744 nM. For `COC(=O)C(=O)c1c(-c2ccccc2)c(-c2ccc(OC)c(OC)c2)c2c3cc(OC)c(OC)cc3ccn12`, the XC50 is 636 nM.

`O=C(CC1CCCC1)Nc1ccc2c(c1)CCC2` returned an XC50 of 868 nM. `CC(C)C(=O)Nc1c(F)cc(F)cc1CCc1ccc(O)cc1` yielded an XC50 of 504 nM. Consider `CCc1c(CCNCCCCCCNCc2ccc3c(c2CC)OCO3)ccc(OC)c1OC`, for which the XC50 was determined as 246 nM. Regarding `COc1ccc(NC(=O)Nc2cc(C)nc3cccnc23)cc1Cn1ccnc1`, the XC50 was determined as 736 nM. The same measure for `O=C(/C=C/c1ccc(Cl)c(Cl)c1)NCCCCCN1CCN(C(=O)Nc2ccc(OC(F)F)cc2)CC1`: 945 nM; for `Cc1ccc(Oc2ncccc2C(=O)Nc2cccc3cccnc23)c(C)c1`: 225 nM. `O=C(NC1CCN(CCC[C@]2(c3ccc(Cl)c(Cl)c3)CCCN(C(=O)c3ccccc3)C2)CC1)c1ccc(F)cc1`: the XC50 stood at 883 nM. In turn, `Cc1cc(NC(=O)Nc2ccc(C(C)(C)C)cc2)c2ccccc2n1` yielded an XC50 of 719 nM. To `Cc1cccc(NC(c2cccs2)c2c(NC(=O)c3ccccc3)sc(C)c2C)n1` (stereo not drawn) belongs 832 nM.

`O=C(c1cc(-c2cccs2)n[nH]1)N1CCN(S(=O)(=O)c2ccc(Cl)s2)CC1`: the XC50 was 868 nM.

Compound `Cc1cccc2nc(-c3cccc(-c4ccc(NC(=O)CS(C)(=O)=O)cc4)c3)[nH]c12` displayed an XC50 of 1000 nM. Consider `O=C1Nc2cccc3c2C1(CCCN1CCC(c2c[nH]c4cc(C(F)(F)F)ccc24)CC1)CCC3` (stereo not drawn), for which the XC50 worked out at 961 nM.
